From patent publication US20100152129A1 (priority 2008, published 2010)
Like-named read-outs stand apart in the source and are kept apart here.

Experiments:
[1] = system: Panc1 cells; settings: human
[2] = system: Panc-1 cells; assay: Protein expression using high content cell imaging system, and efficacy score; assay type: cell-based; settings: for Efficacy score: cumulative over proteins of Table 7; on BCL2 protein expression: test concentration or dose not given here; on CCND1 protein expression: test concentration or dose not given here; on CDC25B protein expression: test concentration or dose not given here; on CDKN2A protein expression: test concentration or dose not given here; on COX15 protein expression: test concentration or dose not given here; on GADD45-α protein expression: test concentration or dose not given here; on GAPDH protein expression: test concentration or dose not given here; on ID1 protein expression: test concentration or dose not given here; on MMP-1 protein expression: test concentration or dose not given here; on P27 protein expression: test concentration or dose not given here; on PTN protein expression: test concentration or dose not given here
[3] = system: Panc1 cells; assay: Drug induced cytotoxicity at various time points, comparison with known CDK inhibitors
[4] = system: Panc-1 cell line; assay: Gene expression profile using RTQ-PCR; assay type: cell-based; settings: Panc1, RTQ-PCR
Method: The objective of the experiment was to evaluate the synergistic effect of drug combination (Gemcitabine with […]) as compared to individual use of the same. The synergistic effect of the compound or drug combination in the Panc-1 cell line was measured in terms of gene expression and expressed as fold changes as compared to the cell control with no drug treatment. Methodology: Cell lines treated with drugs (Gemcitabine, […] or both) were used for total RNA isolation using a commercial RNA extraction kit (Qiagen Corporation, Germany). […] This was followed by real time quantitative polymerase chain reaction (RTQ PCR) using gene specific primers and standard thermal program of initial denaturation at 95° C. for 5 mins and 40 cycles of 95° C. for 10 seconds, followed by […] for 30 seconds (Realplex PCR machine from Eppendorf, Germany). Quantitative measurement of products made during PCR cycles was normalized against a housekeeping gene (Actin) and used to measure the gene expression as fold changes as compared to respective control (FIG. 5).

[5] = 6 hours post treatment, control 1
[6] = 6 hours post treatment, control 3
[7] = 6 hours post treatment, control 6
[8] = 6 hours post treatment, control 7
[9] = 6 hours post treatment, control 8
[10] = 6 hours post treatment, control 74
[11] = 6 hours post treatment, control 80
[12] = 6 hours post treatment, control 147
[13] = 6 hours post treatment, control 501
[14] = 6 hours post treatment, control 627
[15] = 6 hours post treatment, control 635
[16] = 6 hours post treatment, control 819
[17] = 6 hours post treatment, control 829
[18] = 6 hours post treatment, control 830
[19] = 6 hours post treatment, control 1240
[20] = 16 hours post treatment, control 13
[21] = 16 hours post treatment, control 54
[22] = 16 hours post treatment, control 64
[23] = 16 hours post treatment, control 67
[24] = 16 hours post treatment, control 76
[25] = 16 hours post treatment, control 77
[26] = 16 hours post treatment, control 90
[27] = 16 hours post treatment, control 100
[28] = 16 hours post treatment, control 202
[29] = 16 hours post treatment, control 579
[30] = 16 hours post treatment, control 644
[31] = 16 hours post treatment, control 711
[32] = 16 hours post treatment, control 718
[33] = 16 hours post treatment, control 929
[34] = 16 hours post treatment, control 1109
[35] = 16 hours post treatment, control 2583
[36] = 36 hours post treatment, control 19
[37] = 36 hours post treatment, control 86
[38] = 36 hours post treatment, control 96
[39] = 36 hours post treatment, control 98
[40] = 36 hours post treatment, control 100
[41] = 36 hours post treatment, control 265
[42] = 36 hours post treatment, control 715
[43] = 36 hours post treatment, control 722
[44] = 36 hours post treatment, control 1093
[45] = 36 hours post treatment, control 1316
[46] = 36 hours post treatment, control 1410
[47] = 36 hours post treatment, control 1441
[48] = 36 hours post treatment, control 2840

CN1CC[C@H](c2c(O)cc(O)c3c(=O)cc(-c4ccccc4Cl)oc23)[C@H](O)C1 [Flavopiridol]
% Cytotoxicity in Panc1 cells ([1]; 16 h): 21.25% | % Cytotoxicity in Panc1 cells ([1]; 36 h): 29.47% | PTN protein expression [2, 5]: 1 fluorescence units | GADD45-α protein expression [2, 6]: 1 fluorescence units | ID1 protein expression [2, 6]: 2 fluorescence units | P27 protein expression [2, 7]: 9 fluorescence units | CDC25B protein expression [2, 8]: 1 fluorescence units | CDKN2A protein expression [2, 9]: 67 fluorescence units | CCND1 protein expression [2, 10]: 78 fluorescence units | GAPDH protein expression [2, 11]: 80 fluorescence units | CASP3 protein expression [2, 12]: 111 fluorescence units | MMP-1 protein expression [2, 13]: 501 fluorescence units | COX15 protein expression [2, 14]: 689 fluorescence units | COX2 protein expression [2, 15]: 351 fluorescence units | BAX protein expression [2, 16]: 481 fluorescence units | VEGF protein expression [2, 17]: 501 fluorescence units | BCL2 protein expression [2, 18]: 410 fluorescence units | pRB protein expression [2, 19]: 1523 fluorescence units | Efficacy score ([2]; 6 hours): 1.6 | GADD45-α protein expression [2, 20]: 15 fluorescence units | CDC25B protein expression [2, 21]: 10 fluorescence units | CDKN2A protein expression [2, 22]: 14 fluorescence units | P27 protein expression [2, 23]: 22 fluorescence units | PTN protein expression [2, 24]: 17 fluorescence units | ID1 protein expression [2, 25]: 19 fluorescence units | CCND1 protein expression [2, 26]: 52 fluorescence units | GAPDH protein expression [2, 27]: 100 fluorescence units | CASP3 protein expression [2, 28]: 536 fluorescence units | VEGF protein expression [2, 29]: 129 fluorescence units | BCL2 protein expression [2, 30]: 401 fluorescence units | BAX protein expression [2, 31]: 252 fluorescence units | COX15 protein expression [2, 32]: 459 fluorescence units | MMP-1 protein expression [2, 33]: 129 fluorescence units | COX2 protein expression [2, 34]: 466 fluorescence units | pRB protein expression [2, 35]: 1300 fluorescence units | Efficacy score ([2]; 16 hours): 9.4 | GADD45-α protein expression [2, 36]: 5 fluorescence units | COX2 protein expression [2, 37]: 2 fluorescence units | P27 protein expression [2, 38]: 2 fluorescence units | CCND1 protein expression [2, 39]: 27 fluorescence units | CDC25B protein expression [2, 39]: 21 fluorescence units | GAPDH protein expression [2, 39]: 2 fluorescence units | ID1 protein expression [2, 39]: 3 fluorescence units | PTN protein expression [2, 40]: 100 fluorescence units | CASP3 protein expression [2, 41]: 599 fluorescence units | BAX protein expression [2, 42]: 1049 fluorescence units | COX15 protein expression [2, 43]: 1256 fluorescence units | VEGF protein expression [2, 44]: 316 fluorescence units | MMP-1 protein expression [2, 45]: 316 fluorescence units | BCL2 protein expression [2, 46]: 367 fluorescence units | CDKN2A protein expression [2, 47]: 798 fluorescence units | pRB protein expression [2, 48]: 1557 fluorescence units | Efficacy score ([2]; 36 hours): 9.3

CC[C@H](CO)Nc1nc(NCc2ccccc2)c2ncn(C(C)C)c2n1 [Roscovitine]
PTN protein expression [2, 5]: 2 fluorescence units | GADD45-α protein expression [2, 6]: 2 fluorescence units | ID1 protein expression [2, 6]: 16 fluorescence units | P27 protein expression [2, 7]: 6 fluorescence units | CDC25B protein expression [2, 8]: 4 fluorescence units | CDKN2A protein expression [2, 9]: 10 fluorescence units | CCND1 protein expression [2, 10]: 82 fluorescence units | GAPDH protein expression [2, 11]: 81 fluorescence units | CASP3 protein expression [2, 12]: 217 fluorescence units | MMP-1 protein expression [2, 13]: 417 fluorescence units | COX15 protein expression [2, 14]: 936 fluorescence units | COX2 protein expression [2, 15]: 542 fluorescence units | BAX protein expression [2, 16]: 729 fluorescence units | VEGF protein expression [2, 17]: 417 fluorescence units | BCL2 protein expression [2, 18]: 569 fluorescence units | pRB protein expression [2, 19]: 1578 fluorescence units | Efficacy score ([2]; 6 hours): 1.9 | GADD45-α protein expression [2, 20]: 49 fluorescence units | CDC25B protein expression [2, 21]: 38 fluorescence units | CDKN2A protein expression [2, 22]: 47 fluorescence units | P27 protein expression [2, 23]: 42 fluorescence units | PTN protein expression [2, 24]: 37 fluorescence units | ID1 protein expression [2, 25]: 55 fluorescence units | CCND1 protein expression [2, 26]: 84 fluorescence units | GAPDH protein expression [2, 27]: 99 fluorescence units | CASP3 protein expression [2, 28]: 1272 fluorescence units | VEGF protein expression [2, 29]: 475 fluorescence units | BCL2 protein expression [2, 30]: 529 fluorescence units | BAX protein expression [2, 31]: 747 fluorescence units | COX15 protein expression [2, 32]: 954 fluorescence units | MMP-1 protein expression [2, 33]: 475 fluorescence units | COX2 protein expression [2, 34]: 990 fluorescence units | pRB protein expression [2, 35]: 1632 fluorescence units | Efficacy score ([2]; 16 hours): 11.5 | GADD45-α protein expression [2, 36]: 44 fluorescence units | COX2 protein expression [2, 37]: 67 fluorescence units | P27 protein expression [2, 38]: 63 fluorescence units | CCND1 protein expression [2, 39]: 98 fluorescence units | CDC25B protein expression [2, 39]: 68 fluorescence units | GAPDH protein expression [2, 39]: 75 fluorescence units | ID1 protein expression [2, 39]: 56 fluorescence units | PTN protein expression [2, 40]: 98 fluorescence units | CASP3 protein expression [2, 41]: 1335 fluorescence units | BAX protein expression [2, 42]: 1785 fluorescence units | COX15 protein expression [2, 43]: 1992 fluorescence units | VEGF protein expression [2, 44]: 1024 fluorescence units | MMP-1 protein expression [2, 45]: 1024 fluorescence units | BCL2 protein expression [2, 46]: 1091 fluorescence units | CDKN2A protein expression [2, 47]: 1322 fluorescence units | pRB protein expression [2, 48]: 1889 fluorescence units | Efficacy score ([2]; 36 hours): 8.1 | % Cytotoxicity in Panc1 cells ([3]; 6 hrs after drug treatment): 12.35% | % Cytotoxicity in Panc1 cells ([3]; 16 hrs after drug treatment): 15.24% | % Cytotoxicity in Panc1 cells ([3]; 36 hrs after drug treatment): 17.35%

CN1CCC(c2c(O)cc(O)c3c(=O)cc(-c4ccccc4Cl)oc23)C(O)C1 (stereo not drawn) [drawing 14]
CDK2 gene expression vs control cells with no drug treatment [4]: 0.74 log 2 fold ratio | CDK4 gene expression vs control cells with no drug treatment [4]: 0.49 log 2 fold ratio | CDK6 gene expression vs control cells with no drug treatment [4]: 1.31 log 2 fold ratio | CDK8 gene expression vs control cells with no drug treatment [4]: −0.99 log 2 fold ratio | DDIT4 gene expression vs control cells with no drug treatment [4]: −4.21 log 2 fold ratio | RRM1 gene expression vs control cells with no drug treatment [4]: 0.03 log 2 fold ratio | RRM2 gene expression vs control cells with no drug treatment [4]: 0.38 log 2 fold ratio | p14 gene expression vs control cells with no drug treatment [4]: −0.10 log 2 fold ratio | p18 gene expression vs control cells with no drug treatment [4]: −1.14 log 2 fold ratio | p27 gene expression vs control cells with no drug treatment [4]: −0.01 log 2 fold ratio
